Measured values reported in ChEMBL document CHEMBL1139820, “Synthesis of new 7-chloroquinolinyl thioureas and their biological investigation as potential antimalarial and anticancer agents” (Bioorg Med Chem Lett, 2007).

Legend:
[1] = tested on: HeLa; experiment: Cytotoxicity against human HeLa cells assessed as cell survival after 7 hrs by MTT assay; assay type: functional, cell-based
[2] = tested on: Plasmodium falciparum; experiment: Antiplasmodial activity against chloroquine-sensitive Plasmodium falciparum D10 in LDH reporter assay after 48 hrs; assay type: functional, organism-based; settings: D10, 48 h
[3] = Selectivity index, Ratio of IC50 for human HeLa cells to IC50 for Plasmodium falciparum D10; assay type: functional

Row | Structure (SMILES) | IC50 [1] | IC50 [2] | Ratio IC50 [3]
1 | CCOC(=O)N1CCN(C(=S)Nc2ccnc3cc(Cl)ccc23)CC1 | 40.1 µM | > 2.6 µM | –
2 | CCN(CC)CCCNC(=S)Nc1ccnc2cc(Cl)ccc12 | 49.2 µM | 2.2 µM | 22.355
3 | NCCNC(=S)Nc1ccnc2cc(Cl)ccc12 | 18 µM | 3.3 µM | 5.4581
4 | CCN1CCN(C(=S)Nc2ccnc3cc(Cl)ccc23)CC1 | > 50 µM | 1.8 µM | >27.77
5 | S=C(Nc1ccnc2cc(Cl)ccc12)N1CCN(CC2CCCCC2)CC1 | > 50 µM | > 2.4 µM | >20.83
6 | S=C(Nc1ccnc2cc(Cl)ccc12)N1CCN(Cc2ccccc2)CC1 | 28.9 µM | > 2.5 µM | –
7 | OCCNC(=S)Nc1ccnc2cc(Cl)ccc12 | > 50 µM | > 3.5 µM | >14.28
8 | S=C(Nc1ccnc2cc(Cl)ccc12)N1CCNCC1 | – | > 3.26 µM | –
9 | CCSc1nnc(NC(=S)Nc2ccnc3cc(Cl)ccc23)s1 | – | > 2.62 µM | –
10 | S=C(Nc1ccnc2cc(Cl)ccc12)N1CCN(c2ccccc2)CC1 | 43.6 µM | > 2.61 µM | –
11 | CCN(CC)CCCC(C)Nc1ccnc2cc(Cl)ccc12 (configuration not stated) [CHLOROQUINE] | 9.67 µM | – | –
12 | CN(C)CCCNC(=S)Nc1ccnc2cc(Cl)ccc12 | 48.5 µM | 1.2 µM | 40.375
